US12209102B2, “Heterocyclic compounds and uses thereof” (Kumquat Biosciences Inc., priority 2022, dated 2025)

How the values were obtained:
K-Ras G12V = biological target: T1, K-Ras G12V (Homo sapiens, UniProt P01116, G12V); experiment: HTRF resonance energy transfer assay, K-Ras G12V / SOS1 interaction; assay type: biochemical; conditions: HTRF assay of Example 5; read-out: IC50 against K-Ras G12V
T1 construct: made in house; host or cells: E. coli BL21 (DE3)
How it was run: (§1)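 Buffer about 5 mM HEPES pH 7.4 with ~150 mM NaCl, ~1 mM DTT, 0.05% BSA, 0.0025% (v/v) Igepal. Protein constructs used at molarity matching the IC50 range studied (e.g. ~500 nM). FRET between tagged K-Ras and hSOS1 measured after short incubation.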

K-Ras G12S = biological target: T2, K-Ras G12S (Homo sapiens, UniProt P01116, G12S); experiment: HTRF resonance energy transfer assay, K-Ras G12S / SOS1 interaction; assay type: biochemical; conditions: HTRF assay of Example 5; read-out: IC50 against K-Ras G12S
T2 construct: made in house; host or cells: E. coli BL21 (DE3)
T2 sequence (P01116 1-188 isoform P01116-2 G12S): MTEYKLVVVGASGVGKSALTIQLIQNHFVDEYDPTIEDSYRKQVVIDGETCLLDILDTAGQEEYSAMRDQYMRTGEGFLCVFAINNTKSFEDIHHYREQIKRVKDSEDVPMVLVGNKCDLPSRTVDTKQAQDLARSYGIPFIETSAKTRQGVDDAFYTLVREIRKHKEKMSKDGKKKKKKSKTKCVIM
How it was run: as §1

K-Ras WT = biological target: T3, K-Ras WT (Homo sapiens, UniProt P01116); experiment: HTRF resonance energy transfer assay, K-Ras WT / SOS1 interaction; assay type: biochemical; conditions: HTRF assay of Example 5; read-out: IC50 against K-Ras WT
T3 construct: made in house; host or cells: E. coli BL21 (DE3)
T3 sequence (P01116 1-188 isoform P01116-2): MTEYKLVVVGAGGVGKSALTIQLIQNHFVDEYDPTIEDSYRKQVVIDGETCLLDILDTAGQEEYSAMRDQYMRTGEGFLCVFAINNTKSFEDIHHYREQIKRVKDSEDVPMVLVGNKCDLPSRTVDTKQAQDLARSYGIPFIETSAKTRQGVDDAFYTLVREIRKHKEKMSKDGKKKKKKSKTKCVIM
How it was run: as §1

A549 cells = experiment: Ras cellular assay, growth of cells with K-Ras G12S mutation (CellTiter-Glo); assay type: cell-based; conditions: Homo sapiens, cell growth, Example 9, G12S mutation, read-out: IC50 against A549 cells
How it was run: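 Growth inhibition IC50 values come from four-parameter fits of CellTiter-Glo luminescence, read about 6 days after compound addition. G12S-mutant A549 cells (e.g. 800/well, RPMI-1640 + 10% heat-inactivated FBS) were plated in tissue-culture-treated or ultra-low-attachment 384-well format. Dosing began the following day with serial dilutions, e.g. 10 points, 3-fold.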

GP2D cells = experiment: Ras cellular assay, growth of cells with K-Ras G12D mutation (CellTiter-Glo); assay type: cell-based; conditions: cell growth, Example 9, G12D mutation, read-out: IC50 against GP2D cells
K-Ras G12D = biological target: T4, K-Ras G12D (Homo sapiens, UniProt P01116, G12D); experiment: HTRF resonance energy transfer assay, K-Ras G12D / SOS1 interaction; assay type: biochemical; conditions: HTRF assay of Example 5; read-out: IC50 against K-Ras G12D
T4 construct: made in house; host or cells: E. coli BL21 (DE3)
T4 sequence (P01116 1-188 isoform P01116-2 G12D): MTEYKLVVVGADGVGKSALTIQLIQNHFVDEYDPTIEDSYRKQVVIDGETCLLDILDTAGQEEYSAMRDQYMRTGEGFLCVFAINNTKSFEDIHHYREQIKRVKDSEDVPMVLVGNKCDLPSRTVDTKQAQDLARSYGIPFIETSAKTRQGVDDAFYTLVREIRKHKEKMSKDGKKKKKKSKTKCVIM
How it was run: as §1

SW620 cells = experiment: Ras cellular assay, growth of cells with K-Ras G12V mutation (CellTiter-Glo); assay type: cell-based; conditions: Homo sapiens, SW-620; cell growth, Example 9, G12V mutation; read-out: IC50 against SW620 cells
How it was run: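 IC50 values came from a four-parameter fit of CellTiter-Glo viability, read roughly 6 days after dosing with e.g. a 10-point threefold dilution series. G12V-mutant SW620 cells (e.g. 800 per well) had been plated the previous day in RPMI-1640/10% heat-inactivated FBS, on tissue culture-treated or ultra-low attachment plates.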

T1 sequence (P01116 1-188 isoform P01116-2 G12V): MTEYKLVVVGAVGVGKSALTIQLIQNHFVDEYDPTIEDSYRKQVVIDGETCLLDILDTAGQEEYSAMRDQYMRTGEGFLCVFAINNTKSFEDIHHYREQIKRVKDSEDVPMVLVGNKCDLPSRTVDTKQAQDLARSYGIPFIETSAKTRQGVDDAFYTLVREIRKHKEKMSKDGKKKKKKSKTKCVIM

Structure (SMILES) | IC50 (K-Ras G12V) [µM] | IC50 (K-Ras G12S) [µM] | IC50 (K-Ras WT) [µM] | IC50 (A549 cells) [µM] | IC50 (GP2D cells) [µM] | IC50 (K-Ras G12D) [µM] | IC50 (SW620 cells) [µM]
CO[C@@H](C)C(=O)N1CCC(N2CCOc3c(Cl)c(-c4ccc(F)c5sc(N)c(C#N)c45)c(F)c4nc(OC[C@@]56CCCN5C[C@H](F)C6)nc2c34)C1 (stereo partly drawn) [Compound 742, 2-amino-4-(8-chloro-10-fluoro-2-(((2R,7aS)-2-fluorotetrahydro-1H-pyrrolizin-7a(5H)-yl)methoxy)-4-(1-((S)-2-methoxypropanoyl)pyrrolidin-3-yl)-5,6-dihydro-4H-[1,4]oxazepino[5,6,7-de]quinazolin-9-yl)-7-fluorobenzo[b]thiophene-3-carbonitrile] | < 0.1 | < 0.1 | < 0.1 | < 5 | < 0.5 | < 0.1 | < 5
CC(C)(O)C1COc2c(Cl)c(-c3ccc(F)c4sc(N)c(C#N)c34)c(F)c3nc(OC[C@@]45CCCN4C[C@H](F)C5)nc(c23)N1CC(F)F (stereo partly drawn) [Compound 755, 2-amino-4-(8-chloro-4-(2,2-difluoroethyl)-10-fluoro-2-(((2R,7aS)-2-fluorotetrahydro-1H-pyrrolizin-7a(5H)-yl)methoxy)-5-(2-hydroxypropan-2-yl)-5,6-dihydro-4H-[1,4]oxazepino[5,6,7-de]quinazolin-9-yl)-7-fluorobenzo[b]thiophene-3-carbonitrile] | < 0.1 | < 0.1 | < 0.1 | < 5 | < 0.5 | < 0.1 | < 5
N#Cc1c(N)sc2c(F)ccc(-c3c(Cl)c4c5c(nc(OC[C@@]67CCCN6C[C@H](F)C7)nc5c3F)N(C3CCN(C(=O)C5COC5)C3)CCO4)c12 (stereo partly drawn) [Compound 757, 2-amino-4-(8-chloro-10-fluoro-2-(((2R,7aS)-2-fluorotetrahydro-1H-pyrrolizin-7a(5H)-yl)methoxy)-4-(1-(oxetane-3-carbonyl)pyrrolidin-3-yl)-5,6-dihydro-4H-[1,4]oxazepino[5,6,7-de]quinazolin-9-yl)-7-fluorobenzo[b]thiophene-3-carbonitrile] | < 0.1 | < 0.1 | < 0.1 | < 5 | < 0.5 | < 0.1 | < 5
Cn1cc(N2CCOc3c(Cl)c(-c4ccc(F)c5sc(N)c(C#N)c45)c(F)c4nc(OC[C@@]56CCCN5C[C@H](F)C6)nc2c34)cn1 [Compound 765, 2-amino-4-(8-chloro-10-fluoro-2-(((2R,7aS)-2-fluorotetrahydro-1H-pyrrolizin-7a(5H)-yl)methoxy)-4-(1-methyl-1H-pyrazol-4-yl)-5,6-dihydro-4H-[1,4]oxazepino[5,6,7-de]quinazolin-9-yl)-7-fluorobenzo[b]thiophene-3-carbonitrile] | < 0.1 | < 0.1 | < 0.1 | < 5 | < 0.5 | < 0.1 | < 5
C#Cc1c(F)ccc2cc(O)cc(-c3nc4c5c(nc(OC[C@@]67CCCN6C[C@H](F)C7)nc5c3F)N(C3CCOC3)CCN4)c12 (stereo partly drawn) [Compound 771, 5-ethynyl-6-fluoro-4-(4-fluoro-2-(((2R,7aS)-2-fluorotetrahydro-1H-pyrrolizin-7a(5H)-yl)methoxy)-10-(tetrahydrofuran-3-yl)-7,8,9,10-tetrahydro-1,3,6,7,10-pentaazacyclohepta[de]naphthalen-5-yl)naphthalen-2-ol] | < 0.1 | < 0.1 | < 0.1 | < 5 | < 0.5 | < 0.1 | < 5
N#Cc1c(N)sc2c(F)ccc(-c3c(Cl)c4c5c(nc(OC[C@@]67CCCN6C[C@H](F)C7)nc5c3F)N(C3CCN(C(=O)C[C@@H]5CCCO5)C3)CCO4)c12 (stereo partly drawn) [Compound 777, 2-amino-4-(8-chloro-10-fluoro-2-(((2R,7aS)-2-fluorotetrahydro-1H-pyrrolizin-7a(5H)-yl)methoxy)-4-(1-(2-((S)-tetrahydrofuran-2-yl)acetyl)pyrrolidin-3-yl)-5,6-dihydro-4H-[1,4]oxazepino[5,6,7-de]quinazolin-9-yl)-7-fluorobenzo[b]thiophene-3-carbonitrile] | < 0.1 | < 0.1 | < 0.1 | < 5 | < 0.5 | < 0.1 | < 5
N#Cc1c(N)sc2c(F)ccc(-c3c(Cl)c4c5c(nc(OC[C@@]67CCCN6C[C@H](F)C7)nc5c3F)N(C3CCN(C(=O)COC(F)F)C3)CCO4)c12 (stereo partly drawn) [Compound 785, 2-amino-4-(8-chloro-4-(1-(2-(difluoromethoxy)acetyl)pyrrolidin-3-yl)-10-fluoro-2-(((2R,7aS)-2-fluorotetrahydro-1H-pyrrolizin-7a(5H)-yl)methoxy)-5,6-dihydro-4H-[1,4]oxazepino[5,6,7-de]quinazolin-9-yl)-7-fluorobenzo[b]thiophene-3-carbonitrile] | < 0.1 | < 0.1 | < 0.1 | < 5 | < 0.5 | < 0.1 | < 5
N#Cc1c(N)sc2c(F)ccc(-c3c(Cl)c4c5c(nc(OC[C@@]67CCCN6C[C@H](F)C7)nc5c3F)N([C@H]3CCOC3)CCO4)c12 [Compound 793, 2-amino-4-(8-chloro-10-fluoro-2-(((2R,7aS)-2-fluorotetrahydro-1H-pyrrolizin-7a(5H)-yl)methoxy)-4-((S)-tetrahydrofuran-3-yl)-5,6-dihydro-4H-[1,4]oxazepino[5,6,7-de]quinazolin-9-yl)-7-fluorobenzo[b]thiophene-3-carbonitrile] | < 0.1 | < 0.1 | < 0.1 | < 5 | < 0.5 | < 0.1 | < 5
N#Cc1c(N)sc2c(F)ccc(-c3c(Cl)c4c5c(nc(OC[C@@]67CCCN6C[C@H](F)C7)nc5c3F)N([C@@H]3CCN(C(=O)C(F)F)C3)CCO4)c12 [Compound 796, 2-amino-4-(8-chloro-4-((R)-1-(2,2-difluoroacetyl)pyrrolidin-3-yl)-10-fluoro-2-(((2R,7aS)-2-fluorotetrahydro-1H-pyrrolizin-7a(5H)-yl)methoxy)-5,6-dihydro-4H-[1,4]oxazepino[5,6,7-de]quinazolin-9-yl)-7-fluorobenzo[b]thiophene-3-carbonitrile] | < 0.1 | < 0.1 | < 0.1 | < 5 | < 0.5 | < 0.1 | < 5
N#Cc1c(N)sc2c(F)ccc(-c3c(Cl)c4c5c(nc(OC[C@@]67CCCN6C[C@H](F)C7)nc5c3F)N(CC3(C#N)CC3)CCO4)c12 [Compound 798, 2-amino-4-(8-chloro-4-((1-cyanocyclopropyl)methyl)-10-fluoro-2-(((2R,7aS)-2-fluorotetrahydro-1H-pyrrolizin-7a(5H)-yl)methoxy)-5,6-dihydro-4H-[1,4]oxazepino[5,6,7-de]quinazolin-9-yl)-7-fluorobenzo[b]thiophene-3-carbonitrile] | < 0.1 | < 0.1 | < 0.1 | < 5 | < 0.5 | < 0.1 | < 5
N#Cc1c(N)sc2c(F)ccc(-c3c(Cl)c4c5c(nc(OC[C@@]67CCCN6C[C@H](F)C7)nc5c3F)N(C3COCCOC3)CCO4)c12 [Compound 803, 2-amino-4-(8-chloro-4-(1,4-dioxepan-6-yl)-10-fluoro-2-(((2R,7aS)-2-fluorotetrahydro-1H-pyrrolizin-7a(5H)-yl)methoxy)-5,6-dihydro-4H-[1,4]oxazepino[5,6,7-de]quinazolin-9-yl)-7-fluorobenzo[b]thiophene-3-carbonitrile] | < 0.1 | < 0.1 | < 0.1 | < 5 | < 0.5 | < 0.1 | < 5
N#Cc1c(N)sc2c(F)ccc(-c3c(Cl)c4c5c(nc(OC[C@@]67CCCN6C[C@H](F)C7)nc5c3F)N(CCC(F)F)CCO4)c12 [Compound 807, 2-amino-4-(8-chloro-4-(3,3-difluoropropyl)-10-fluoro-2-(((2R,7aS)-2-fluorotetrahydro-1H-pyrrolizin-7a(5H)-yl)methoxy)-5,6-dihydro-4H-[1,4]oxazepino[5,6,7-de]quinazolin-9-yl)-7-fluorobenzo[b]thiophene-3-carbonitrile] | < 0.1 | < 0.1 | < 0.1 | < 5 | < 0.5 | < 0.1 | < 5
